Measured values published in ChEMBL document CHEMBL1148072, “Ellagitannins and complex tannins from Quercus petraea bark” (J Nat Prod, 1994).

Each compound was assayed on Caenorhabditis elegans (assay: Anthelmintic activity against Caenorhabditis elegans).
Format: functional, organism-based

With COC(=O)Nc1nc2cc(C(=O)c3ccccc3)ccc2[nH]1 [MEBENDAZOLE] the IC50 was 10 ppm.

What follows are compounds tested on Blood (assay: Astringency in human blood by heme-analysis relative to tannin).
Format: functional

Point of comparison: O=C1OC[C@H]2OC(O)[C@@H]3OC(=O)c4cc(O)c(O)c(O)c4-c4c(cc(O)c(O)c4O)C(=O)O[C@H]3[C@@H]2OC(=O)c2cc(O)c(O)c(O)c2-c2c1cc(O)c(O)c2O (stereo partly specified) [PEDUNCULAGIN], Activity 0.2. Against it:
- O=C1OC[C@H]2OC(=O)c3cc(O)c(O)c(O)c3-c3c(O)c(O)c(O)c4c3C(=O)O[C@H]([C@@H]3OC(=O)c5c-4c(O)c(O)c(O)c5[C@@H]3c3c(O)cc(O)c4c3O[C@H](c3ccc(O)c(O)c3)[C@@H](O)C4)[C@H]2OC(=O)c2cc(O)c(O)c(O)c2-c2c1cc(O)c(O)c2O [ACUTISSIMIN A] — higher, 0.28
- O=C1OC[C@H]2OC(=O)c3cc(O)c(O)c(O)c3-c3c(O)c(O)c(O)c4c3C(=O)O[C@H]([C@@H]3OC(=O)c5c-4c(O)c(O)c(O)c5[C@@H]3c3c(O)cc(O)c4c3O[C@H](c3cc(O)c(O)c(O)c3)[C@@H](O)C4)[C@H]2OC(=O)c2cc(O)c(O)c(O)c2-c2c1cc(O)c(O)c2O [EUGENIGRANDIN A] — higher, 0.46
- O=C1OC[C@H]2OC(=O)c3cc(O)c(O)c(O)c3-c3c(O)c(O)c(O)c4c3C(=O)O[C@H]([C@@H]3OC(=O)c5c-4c(O)c(O)c(O)c5[C@@H]3c3c(O)cc4c(c3O)C[C@H](O)[C@@H](c3cc(O)c(O)c(O)c3)O4)[C@H]2OC(=O)c2cc(O)c(O)c(O)c2-c2c1cc(O)c(O)c2O [GUAJAVIN B] — higher, 0.44
- O=C1OCC2OC(=O)c3cc(O)c(O)c(O)c3-c3c(O)c(O)c(O)c4c3C(=O)OC(C2OC(=O)c2cc(O)c(O)c(O)c2-c2c1cc(O)c(O)c2O)C1OC(=O)c2c-4c(O)c(O)c(O)c2C1O (stereo unspecified) [VESCALAGIN] — higher, 0.24
